Test results: patent publication US20080306268A1, “Crystalline clopidogrel hydrobromide and processes for preparation thereof” (Teva Pharmaceuticals USA, Inc. for Barbados, priority 2004, published 2008)
Structures can show the parent of a compound that is named as a salt.

How the values were obtained:
[1] = opened beaker, room temperature, 4 days
Description: Form I may also be prepared by exposing a hygroscopic crystalline clopidogrel hydrobromide to air, preferably for at least about 24 hours. In a preferred embodiment, the clopidogrel hydrobromide exposed is Form II, discussed below.

[2] = pure crystalline hydrate, purity at least about 99% by HPLC
[3] = compared with aspirin; cited from earlier work
platelet aggregation = conditions: 75 mg base equivalent versus 325 mg aspirin; cited from earlier work

COC(=O)[C@H](c1ccccc1Cl)N1CCc2sccc2C1 [Form II, clopidogrel hydrobromide]
crystalline form after exposure to air [1]: giving clopidogrel hydrobromide form I

COC(=O)[C@H](c1ccccc1Cl)N1CCc2sccc2C1 [clopidogrel hydrobromide hydrate]
hygroscopicity [2]: only minor hygroscopicity

COC(=O)[C@H](c1ccccc1Cl)N1CCc2sccc2C1 [clopidogrel, methyl (+)-(S)-∝-(o-chlorophenyl)-6,7-dihydrothieno[3,2-c]pyridine-5(4H)-acetate]
gastrointestinal bleeding versus aspirin [3]: much less gastrointestinal bleeding than aspirin | effectiveness in blocking platelet aggregation versus aspirin (platelet aggregation): more effective in blocking platelet aggregation than aspirin
